Data taken from ChEMBL document CHEMBL1201862, “PubChem BioAssay data set” (2004).
The source made the active and inactive calls. For most assays here, no stated cut-off is given here; in the data, actives have a measured EC50 and inactives only a lower limit.

How the values were obtained:
[1] = target: Luciferin 4-monooxygenase (Photinus pyralis, UniProt P08659); experiment: firefly luciferase enzyme inhibitors, dose response, biochemical, luminescence (AID 1891)
[2] = Luminescence Cell-Based Dose Confirmation HTS to Identify Inhibitors of Platelet Dense Granule Release. [Related pubchem assays: 1663 (Primary HTS), 1678 (Summary of Project)]; format: functional
H9c2 = experiment: cells; format: functional, cell-based; details: Rattus norvegicus, H9c2, Myocardium;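 further: confirmatory concentration-response retest of ultra-high-throughput screening hits for modulation of myocardial damage; cell death induced by hydrogen peroxide oxidative stress; compound pretreatment for 60 min then peroxide exposure for 2 h; potency is for protecting the cells against peroxide damage rather than for killing them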
[3] = Luminescence Cell-Based Dose Retest to Confirm Inhibitors of Cancer Stem Cells. [Related pubchem assays (depositor defined):AID2717, AID2721]; format: functional; details: Homo sapiens
[4] = target: T1, Heat shock factor protein 1 (Mus musculus, UniProt P38532); experiment: HSF1 potentiators in luciferase reporter cells, confirmation, cell-based, NIH3T3, luminescence, dose retest (AID 435004); format: functional;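 further: stress induced by proteasome inhibitor MG132 added 30 min after compound; luciferase reporter driven by HSF1 response element in NIH3T3 cells; actives raise luminescence as potentiators of the MG132 stress response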
T1 sequence (P38532 whole entry): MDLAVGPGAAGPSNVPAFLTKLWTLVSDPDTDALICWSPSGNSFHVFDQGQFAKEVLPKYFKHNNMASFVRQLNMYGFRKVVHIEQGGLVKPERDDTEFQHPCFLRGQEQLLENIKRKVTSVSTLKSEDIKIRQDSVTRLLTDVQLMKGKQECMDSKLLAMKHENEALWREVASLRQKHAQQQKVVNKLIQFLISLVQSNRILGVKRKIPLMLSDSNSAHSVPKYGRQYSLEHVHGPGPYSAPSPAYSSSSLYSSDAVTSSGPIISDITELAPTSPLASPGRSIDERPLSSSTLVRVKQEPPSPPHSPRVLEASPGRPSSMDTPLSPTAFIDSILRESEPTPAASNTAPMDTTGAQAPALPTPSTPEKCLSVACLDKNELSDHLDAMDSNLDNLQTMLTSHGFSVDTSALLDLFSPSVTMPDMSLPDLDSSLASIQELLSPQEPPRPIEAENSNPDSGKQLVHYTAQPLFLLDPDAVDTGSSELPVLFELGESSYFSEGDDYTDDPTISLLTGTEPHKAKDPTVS

[5] = inhibitors of SNCA 5'UTR-driven reporter translation, confirmation, H4 neuroglioma cells, luminescence (AID 1988); format: functional, cell-based
[6] = inhibitors of firefly luciferase expression or activity, dose response, H4 neuroglioma cells, luminescence (AID 1990); format: functional, cell-based
[7] = Luminescence Cell-Based Dose Response HTS to Identify Inhibitors of 5'UTR Stem-Loop Driven Prion Protein mRNA Translation in H4 Neuroglioblastoma Cells. [Related pubchem assays: 1827 (Project Summary), 1813 (Primary HTS)]; format: functional
Streptococcus = experiment: Group A Streptococcus viability loss, dose response, counter-screen for streptokinase expression inhibitor project, luminescence, BacTiterGlo (AID 1915); format: functional, organism-based;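 further: potency for reduction of bacterial viability or growth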
[8] = system: Streptococcus sp. 'group A'; experiment: growth inhibition of control SK(-) GAS strain, dose response, counter-screen for streptokinase expression inhibitor project, luminescence, kanamycin, BacTiterGlo, confirmation (AID 1900); format: functional, organism-based
Streptokinase A = target: T2, Streptokinase A (Streptococcus pyogenes serotype M1, UniProt P10520); experiment: S. pyogenes streptokinase expression inhibitors, potency, dose response, plasminogen activation absorbance, OD405 (AID 1914); format: functional, Streptococcus pyogenes M1 GAS;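 further: secreted streptokinase activity via plasminogen activation per viability signal from cell pellet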
T2 sequence (P10520 whole entry): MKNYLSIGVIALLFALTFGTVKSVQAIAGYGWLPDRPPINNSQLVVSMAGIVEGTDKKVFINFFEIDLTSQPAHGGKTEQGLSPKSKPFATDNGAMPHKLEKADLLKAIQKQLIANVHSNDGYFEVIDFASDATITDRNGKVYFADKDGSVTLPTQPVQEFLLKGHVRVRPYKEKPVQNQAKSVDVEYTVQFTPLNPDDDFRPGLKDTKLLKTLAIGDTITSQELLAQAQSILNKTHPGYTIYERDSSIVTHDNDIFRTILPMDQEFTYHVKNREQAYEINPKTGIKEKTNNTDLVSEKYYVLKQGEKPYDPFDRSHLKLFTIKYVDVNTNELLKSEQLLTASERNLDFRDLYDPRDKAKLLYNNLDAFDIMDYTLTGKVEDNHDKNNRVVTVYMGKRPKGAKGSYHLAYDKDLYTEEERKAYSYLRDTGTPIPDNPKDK

Cytochrome P450 2D6 = Cytochrome P450 2D6 (Homo sapiens, UniProt P10635);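 further: CYP2D6 member of a cytochrome P450 panel assay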
Chain of Cytochrome P450 2D6 (P10635 whole entry): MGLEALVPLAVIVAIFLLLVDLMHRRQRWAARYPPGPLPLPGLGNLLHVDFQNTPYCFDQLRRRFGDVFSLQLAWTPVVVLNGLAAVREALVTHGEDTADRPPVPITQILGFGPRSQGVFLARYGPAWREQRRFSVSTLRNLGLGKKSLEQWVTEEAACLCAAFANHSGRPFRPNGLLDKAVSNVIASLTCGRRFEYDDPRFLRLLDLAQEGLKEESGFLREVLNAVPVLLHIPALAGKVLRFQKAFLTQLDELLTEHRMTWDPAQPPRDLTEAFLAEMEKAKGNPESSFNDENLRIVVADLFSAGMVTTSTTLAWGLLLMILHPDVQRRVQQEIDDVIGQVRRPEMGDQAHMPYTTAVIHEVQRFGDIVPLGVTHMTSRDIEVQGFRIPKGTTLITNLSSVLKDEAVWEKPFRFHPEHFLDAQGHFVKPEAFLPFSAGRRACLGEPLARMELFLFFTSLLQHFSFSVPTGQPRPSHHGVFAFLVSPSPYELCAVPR

Cytochrome P450 3A4 = Cytochrome P450 3A4 (Homo sapiens, UniProt P08684);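 further: CYP3A4 tested as one member of a cytochrome P450 panel screen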
Chain of Cytochrome P450 3A4 (P08684 whole entry): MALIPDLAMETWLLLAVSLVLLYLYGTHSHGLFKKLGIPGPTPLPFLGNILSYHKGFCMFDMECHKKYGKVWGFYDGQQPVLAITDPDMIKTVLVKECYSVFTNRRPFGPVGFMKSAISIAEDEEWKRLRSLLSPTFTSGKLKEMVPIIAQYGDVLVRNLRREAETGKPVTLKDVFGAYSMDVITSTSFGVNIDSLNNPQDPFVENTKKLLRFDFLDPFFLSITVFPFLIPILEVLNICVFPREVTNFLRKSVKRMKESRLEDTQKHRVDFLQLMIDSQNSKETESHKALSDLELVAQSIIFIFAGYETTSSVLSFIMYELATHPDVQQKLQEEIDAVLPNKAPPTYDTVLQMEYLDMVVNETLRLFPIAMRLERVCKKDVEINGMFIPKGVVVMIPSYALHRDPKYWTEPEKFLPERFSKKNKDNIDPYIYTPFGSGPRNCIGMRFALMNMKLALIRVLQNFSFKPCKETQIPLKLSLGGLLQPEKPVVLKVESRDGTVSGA

[9] = target: T1, Heat shock factor protein 1; experiment: inhibition of MG132-induced HSE-luciferase signal, confirmation, cell-based, NIH3T3, luminescence, dose retest (AID 2382); format: functional;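 further: NIH3T3 fibroblasts with HSF1-driven luciferase reporter stressed by proteasome inhibitor MG132; luminescence from HSF1-driven luciferase expression after 8 hours of MG132 stress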
INS1 = experiment: beta cell apoptosis inhibitors, cytokine rescue, dose response, luminescence, retest (AID 449756); format: functional, cell-based; details: Rattus norvegicus;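 further: cell death triggered by IL-1 beta plus TNF-alpha plus IFN-gamma mixture; protective hits raise ATP signal compared with cytokine alone wells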
[10] = cytotoxicity toward NIH3T3 fibroblasts, dose response, counter-screen, cell-based, ATP luminescence, mouse fibroblasts (AID 2010); format: functional;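 further: cells exposed to compound for about 90 hours before reading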
[11] = inhibitors of intracellular T. cruzi replication, confirmation, NIH3T3 host cells, beta-gal luminescence (AID 2044); format: functional, cell-based;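 further: intracellular parasites grown in NIH/3T3 mouse fibroblasts as host cells; luminescent beta-galactosidase reporter signal from transgenic T. cruzi replicating inside host cells; inhibitors lower the luminescence signal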
Cytochrome P450 1A2 = target: T3, Cytochrome P450 1A2 (Homo sapiens, UniProt P05177);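 further: PubChem cytochrome P450 panel assay, CYP1A2 panel member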
T3 sequence (P05177 whole entry): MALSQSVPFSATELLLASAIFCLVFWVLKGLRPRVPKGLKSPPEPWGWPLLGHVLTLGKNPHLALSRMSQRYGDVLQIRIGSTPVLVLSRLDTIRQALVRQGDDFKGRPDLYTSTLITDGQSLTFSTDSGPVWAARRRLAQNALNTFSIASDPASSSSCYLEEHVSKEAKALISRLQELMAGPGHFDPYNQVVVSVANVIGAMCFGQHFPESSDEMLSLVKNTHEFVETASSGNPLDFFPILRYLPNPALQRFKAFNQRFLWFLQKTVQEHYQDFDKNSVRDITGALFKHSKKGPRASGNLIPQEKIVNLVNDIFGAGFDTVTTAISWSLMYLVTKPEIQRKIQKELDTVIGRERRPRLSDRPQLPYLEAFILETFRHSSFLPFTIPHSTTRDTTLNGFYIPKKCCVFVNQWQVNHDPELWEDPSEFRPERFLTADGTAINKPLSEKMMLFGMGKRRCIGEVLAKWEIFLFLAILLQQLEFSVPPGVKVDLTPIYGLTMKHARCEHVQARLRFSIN

Chain of Luciferin 4-monooxygenase (P08659 whole entry): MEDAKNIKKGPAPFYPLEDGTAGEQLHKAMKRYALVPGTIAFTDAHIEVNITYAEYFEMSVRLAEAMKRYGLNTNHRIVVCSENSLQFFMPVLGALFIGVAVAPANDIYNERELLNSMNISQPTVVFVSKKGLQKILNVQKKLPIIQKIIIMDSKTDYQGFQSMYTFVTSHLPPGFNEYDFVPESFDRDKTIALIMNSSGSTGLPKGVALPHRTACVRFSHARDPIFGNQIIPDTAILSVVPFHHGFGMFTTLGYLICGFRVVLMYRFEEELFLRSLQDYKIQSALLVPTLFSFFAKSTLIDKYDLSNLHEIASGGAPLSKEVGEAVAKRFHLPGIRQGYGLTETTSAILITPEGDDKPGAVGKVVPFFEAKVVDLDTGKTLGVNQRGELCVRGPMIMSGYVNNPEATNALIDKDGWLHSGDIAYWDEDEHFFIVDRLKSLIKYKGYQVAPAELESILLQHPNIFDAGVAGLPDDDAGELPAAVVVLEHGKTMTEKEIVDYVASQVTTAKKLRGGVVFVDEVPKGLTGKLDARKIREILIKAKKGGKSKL

In the case of `CC/C(C)=N\N=C\c1c(O)n(CC)c2cc(C3=NNC(=O)CC3)ccc12`, the EC50 [1] is reported as > 112 µM (not active), the EC50 [2] is reported as 6.14 µM (active) and the IC50 (H9c2) is reported as 11.9 µM (active).

For `COc1ccc(C(=O)N2CCCC(c3nc(-c4ccc(OC)c(OC)c4)no3)C2)c(OC)c1` (centres undefined), the EC50 [1] was > 112 µM (not active) and the EC50 [2] was > 112 µM (not active).

For `Cc1cc(OCc2cc(C(=O)N3CCC(Oc4cccnc4)CC3)no2)cc(C)c1Cl`, the AC50 [3] was 7.55 µM (active).

With `COc1ccc(OCC(=O)Nc2nc3ccccc3[nH]2)cc1` the EC50 [1] was > 112 µM (not active) and the EC50 [2] was > 112 µM (not active).

With `COC(=O)/C(=C\Nc1ccccc1N)c1ncc(C(F)(F)F)cc1Cl` the EC50 [4] was > 260 µM (inactive).

With `CC1CCN(Cc2c(C(=O)N/N=C/c3ccc(C(C)(C)C)cc3)nnn2-c2nonc2N)CC1` the EC50 [5] was > 120 µM (not active), the EC50 [6] was 9.56 µM (active) and the EC50 [7] was 14.1 µM (active).

With `COc1ccc(/C=N/NC(=O)C2C3CCCCC32)cc1OC` (centres undefined) the EC50 [5] was 67.5 µM (active), the EC50 [6] was > 120 µM (not active) and the EC50 [7] was > 120 µM (not active).

With `O=C(Nc1cccc(-c2csc(Nc3cccc(C(F)(F)F)c3)n2)c1)c1ccccc1` the AC50 [3] was 1.6 µM (active), the EC50 (Streptococcus) was 6.3 µM (active) and the EC50 [8] was 4.47 µM (active). For the same compound, the EC50 (Streptokinase A) was > 150 µM (not active).

In the case of `O=C(NCc1cccs1)c1csc2ccccc12`, the EC50 [1] is reported as > 112 µM (not active) and the EC50 [2] is reported as > 112 µM (not active).

With `Oc1cccc(-c2nc3c4c(ncn3n2)-c2ccccc2CC42CCCC2)c1` the AC50 [3] was 1.16 µM (active), the AC50 (Cytochrome P450 2D6) was 0.631 µM (inconclusive) and the AC50 (Cytochrome P450 3A4) was 22.4 µM (inconclusive).

For `O=C1c2cccnc2Oc2ccc(Cl)cc2N1Cc1ccc(F)cc1`, the IC50 (H9c2) was > 79 µM (inactive) and the EC50 [9] was > 195 µM (not active).

With `CC(C)(C)c1ccc(Oc2ccc(NC(=O)c3cccs3)cn2)cc1` the AC50 [3] was 3.9 µM (active).

With `COC(=O)c1ccc(CSc2nnc(N)s2)cc1` the EC50 [1] was > 112 µM (not active) and the EC50 [2] was > 112 µM (not active).

For `CCc1cc(CNC(=O)c2ccc3nc(Cc4ccc(OC)c(OC)c4)oc3c2)on1`, the AC50 (INS1) was 3.62 µM (active).

In the case of `O=C1CC(c2cccc(Cl)c2)c2cc3c(cc2N1)CCC3` (centres undefined), the EC50 [5] is reported as 6.74 µM (active), the EC50 [6] is reported as > 120 µM (not active) and the EC50 [7] is reported as 11.9 µM (active).

In the case of `Cc1ccc(-n2c(SCC(=O)Nc3cc(S(=O)(=O)N4CCOCC4)ccc3Cl)nc3ccccc3c2=O)cc1`, the EC50 [4] is reported as > 260 µM (inactive).

For `Cc1cc(-c2csc3ncnc(S)c23)cc(C)c1C`, the AC50 [3] was 12.8 µM (active), the EC50 (Streptococcus) was 4.06 µM (active) and the EC50 [8] was 1.31 µM (active).

For `Cc1onc(-c2ccccc2)c1C(=O)N/N=C/c1cccc(O)c1`, the EC50 [4] was > 260 µM (inactive).

For `Cc1ccc(NC(=O)c2cc3c(=O)oc4ccccc4c3s2)nc1`, the EC50 [4] was > 260 µM (inactive).

In the case of `Cc1ccc(-n2nc3c(N4CCC(C(=O)NCCc5ccccc5C)CC4)nnc(C)c3c2C)cc1`, the EC50 [5] is reported as > 120 µM (not active), the EC50 [6] is reported as 9.7 µM (active) and the EC50 [10] is reported as 6.26 µM (active). The EC50 [7] was 39.8 µM (active) and the EC50 [11] was 0.941 µM (active).

With `CCCCNc1c(-c2ccc(SC3CCCCC3)cc2)nc2ccccn12` the EC50 (Streptococcus) was 8.23 µM (active), the AC50 (INS1) was 5.33 µM (active) and the EC50 [10] was > 30 µM (not active). The EC50 [8] was 8.18 µM (active), the EC50 [11] was 1.2 µM (active) and the EC50 (Streptokinase A) was > 150 µM (not active).

With `COC1=C(Nc2ccccc2OC)C(=O)c2ccccc2C1=O` the AC50 (INS1) was 38.3 µM (active).

In the case of `COc1ccc2oc(=O)c(C(=O)N3CCCC3)cc2c1`, the EC50 [1] is reported as > 112 µM (not active) and the EC50 [2] is reported as > 112 µM (not active).

In the case of `COc1nc(N2CCCCCC2)nc(N2CCCCCC2)n1`, the AC50 [3] is reported as 6.21 µM (active).

For `COc1ccc(/N=C/C2=C(O)c3ccccc3C2=O)cc1`, the EC50 [1] was 0.576 µM (active) and the EC50 [2] was 3.93 µM (active).

For `CC(=O)NCCC(=O)Nc1nc(-c2cccs2)c(-c2cccs2)s1`, the EC50 [4] was > 260 µM (inactive).

For `CN(C)c1nc(NC(C)(C)C)nc(SCC(=O)Nc2ccccc2)n1`, the EC50 [4] was > 260 µM (inactive).

For `Cn1nnc2c[n+](CC(=O)c3ccc4ccccc4c3)cc(Br)c21`, the EC50 [4] was 12.2 µM (active).

With `CCOC(=O)c1nn(-c2ccc3c(c2)CCN3C(C)=O)cc1O` the EC50 [1] was > 112 µM (not active) and the EC50 [2] was > 112 µM (not active).

In the case of `COCCN1CN=C(Nc2nc3ccccc3o2)NC1`, the EC50 [1] is reported as > 112 µM (not active), the EC50 [2] is reported as > 112 µM (not active) and the AC50 (Cytochrome P450 1A2) is reported as 22.4 µM (inconclusive).

For `COc1ccccc1-c1c(C(F)(F)F)oc2cc(OCC(=O)Nc3cc(C)ccc3C)ccc2c1=O`, the EC50 [5] was > 120 µM (not active), the EC50 [6] was > 120 µM (not active) and the EC50 [7] was > 120 µM (not active).

With `COC(=O)c1sccc1NC(=O)Nc1cccc(OC)c1` the EC50 [1] was 1.31 µM (active) and the EC50 [2] was 4.37 µM (active).

For `Cc1nc(O)nc(O)c1/C=C/C(=O)OCC(C)C`, the EC50 [5] was 15.5 µM (active), the EC50 [6] was 22.7 µM (active) and the EC50 [7] was > 120 µM (not active).

For `CCOc1ccc(C2C3=C(O)CCCC3=Nc3ccc4ncccc4c32)cc1` (centres undefined), the EC50 [4] was 14.1 µM (active).

For `CCN(CC(=O)Nc1ccc(NC(C)=O)cc1)Cc1c(O)ccc2cc(Br)ccc12`, the EC50 [4] was 8.46 µM (active).

For `COC(=O)N1C(=O)[C@@](c2ccccc2)(C2CCCC2)N1C(=O)OC`, the EC50 [4] was 14.9 µM (active).

With `CCCCN=C(S)N(Cc1ccco1)Cc1cc2cc3c(cc2nc1O)OCCO3` the EC50 [4] was > 260 µM (inactive).

With `O=[N+]([O-])CC(c1ccccc1)c1c(O)n[nH]c1-c1ccccc1O` (centres undefined) the EC50 [4] was 131 µM (active).

For `CCOC(=O)C1=C(C)N=c2s/c(=C\C(=O)OC)c(=O)n2C1c1ccc(OC)cc1` (centres undefined), the EC50 [4] was 10.1 µM (active).

With `O=C1c2c(Br)c(Br)c(Br)c(Br)c2C(=O)N1c1ccccn1` the AC50 [3] was 1.95 µM (active).
